The text below walks through data of patent publication US8529927B2, “Alpha-2 agonist polymeric drug delivery systems” (Allergan, Inc., priority 2004, dated 2013).

Where two headings read alike, the source gives them in different places.

For series [1] the following is noted: cited from earlier work.
In series [2] the test system is Branch retinal vein occlusion (BRVO). As to the kind of experiment: intravitreal implants in monkeys with laser-induced branch retinal vein occlusion (BRVO). The format is in vivo, Cynomolgus monkeys.
Procedure: Baseline measures were performed 3 days prior to implantation and 10 days following implantation with intraocular pressure (IOP), mfERG, laser Doppler scanning topography/flowmetry (HRT/HRF), optical coherence tomography (OCT), indocyanine green angiography (ICG) and fluorescein angiography (FA).
Wide angle contact lens fundus photography verified implant count and localization.
Branch retinal vein occlusion (BRVO) was achieved by injecting 1 ml of 20 mg/kg Rose Bengal intravenously followed by thermal irradiation using Omni Coherent Diode laser at 532 nm, 600 mW, 50 um spot size, 0.01 sec pulse mode with a 1.6× inversion contact lens. Laser pulses were delivered until the vein segment was closed. […] Occlusion was verified post-laser by fundus photography.
Delay in fluorescein filling of the occluded vein was quantified using Metamorph 6.0 software. Intensity measurements were made with pre-defined regions of interest for early and late phases of fluorescein angiography to quantify delay in filling and the observed delay in fluorescein clearance.
Intraocular pressure (IOP) was recorded (OD and OS) in each group in triplicate post implantation and prior to all follow-up electrophysiology and retinal imaging procedures.
Multi-focal ERG was performed using a VERIS 5.0 system.
The nature of series [3]: in vivo. Here is the method:
A separate group of rabbits were studied to obtain pharmacokinetic data. In these rabbits the implants were inserted using a surgical intravitreal implantation procedure performed as follows: a conjunctival incision was made, and a sclerotomy was performed with a 20-gauge MVR blade. The sclerotomy was 3 mm from the limbus and lateral to the dorsal rectus muscle between the 10 and 12 o'clock positions on the right eye, and between the 12 and 2 o'clock positions on the left eye. Using a sterile forceps, the test article was inserted through the sclerotomy. The sclerotomy was closed with 9-0 Prolene suture material. A sterile ocular lubricant was applied to the eye following the implantation procedure. Blood was collected from rabbits prior to euthanasia/necropsy on Days 8, 31, 58, 91, 136, or 184. The aqueous humor, vitreous humor, lens, retina and plasma samples from the rabbits were analyzed by using liquid chromatography-mass spectrometry/mass spectrometry (LC-MS/MS) methods.

The mark [4] stands for this setting: albino, rabbit, lens, other: intravitreal implantation, 200 μg.
The mark [5] stands for this setting: albino, rabbit, plasma, other: intravitreal implantation, 200 μg.
[6] abbreviates: albino, rabbit, retina, other: intravitreal implantation, 200 μg.
The mark [7] stands for this setting: albino, rabbit, vitreous humor, other: intravitreal implantation, 200 μg.

As to `Brc1c(NC2=NCCN2)ccc2nccnc12` [brimonidine, 5-bromo-6-(2-imidazolidinylideneamino) quinoxaline], in series [1] (listed as brimonidine free base), the “solubility in water” value was “not water soluble”. In addition, the “solubility in water” value in series [1] (listed as brimonidine freebase) is on record as “negligible”. Further, the “blood flow in the fovea (Laser Doppler Flowmetry)” value in series [2] (following BRVO, FIG. 14) was “unchanged”. Moreover, the “amount of laser burns needed to close the veins” value in series [2] (n=2) turned out to be 157±79. The “Iris-ciliary body brimonidine concentration, estimated mean value in parentheses” value in series [3] (Day 8, Formulation #17 implant, estimate including ALQ samples) is reported as 3010 ng/g. In addition, the “Iris-ciliary body brimonidine concentration” value in series [3] (Day 8 after intravitreal 200 μg brimonidine implant (Formulation #17), N = 2, two samples ALQ) came to 942 ng/g. Also, in series [3] (Formulation #17 implant), the “period of detectable release from the implant into the vitreous” value is on record as “at least a ninety day period”, the “route of clearance after release from the intravitreal implant” value is recorded as “posterior clearance as opposed to an anterior clearance” and the “time brimonidine was present in the retina” value is “at least 84 days”. The compound also registered a concentration at 91 day in series [3] (albino, rabbit, iris-ciliary body, other: intravitreal implantation, 200 μg) of 42.9 ± 18.7 ng/g. In series [3] (setting [4]), this compound displayed a concentration at 58 day of 17.9 ± 12.5 ng/g, a concentration at 136 day of 16.2 ± 12.3 ng/g and a concentration at 184 day of 1.18 ± 0.71 ng/g. In series [3] (setting [5]), this compound registered a concentration at 8 day of 0.092 ng/mL, a concentration at 31 day of 0.0575 ng/mL and a concentration at 58 day of 0.255 ng/mL. In series [3] (setting [6]), this compound showed a concentration at 58 day of 122 ± 57.3 ng/g, a concentration at 91 day of 488 ± 471 ng/g and a concentration at 184 day of 59.8 ± 35 ng/g. Moreover, in series [3] (setting [7]), the concentration at 31 day was 9.35 ± 6.25 ng/mL and the concentration at 58 day was found to be 5.6 ± 3.24 ng/mL. Further, the “detectability in the aqueous humor” value in series [3] (any time point (Days 8-184), Formulation #17 implant) is given as “not detectable at any time point”.
